Laboratory results published in patent US7138414B2, “Heterocyclically substituted benzoylureas, process for their preparation and their use as pharmaceuticals” (Sanofi-Aventis Deutschland GmbH, priority 2002, dated 2006).

How the values were obtained:
[1] = target: T1, human glycogen phosphorylase a (Homo sapiens, UniProt P06737); test: Glycogen phosphorylase a activity test (reverse direction, release of inorganic phosphate); type: biochemical; conditions: 10 μM test substance, duplicate determinations, 40 min at room temperature
T1 sequence (P06737 2-847 limits assumed): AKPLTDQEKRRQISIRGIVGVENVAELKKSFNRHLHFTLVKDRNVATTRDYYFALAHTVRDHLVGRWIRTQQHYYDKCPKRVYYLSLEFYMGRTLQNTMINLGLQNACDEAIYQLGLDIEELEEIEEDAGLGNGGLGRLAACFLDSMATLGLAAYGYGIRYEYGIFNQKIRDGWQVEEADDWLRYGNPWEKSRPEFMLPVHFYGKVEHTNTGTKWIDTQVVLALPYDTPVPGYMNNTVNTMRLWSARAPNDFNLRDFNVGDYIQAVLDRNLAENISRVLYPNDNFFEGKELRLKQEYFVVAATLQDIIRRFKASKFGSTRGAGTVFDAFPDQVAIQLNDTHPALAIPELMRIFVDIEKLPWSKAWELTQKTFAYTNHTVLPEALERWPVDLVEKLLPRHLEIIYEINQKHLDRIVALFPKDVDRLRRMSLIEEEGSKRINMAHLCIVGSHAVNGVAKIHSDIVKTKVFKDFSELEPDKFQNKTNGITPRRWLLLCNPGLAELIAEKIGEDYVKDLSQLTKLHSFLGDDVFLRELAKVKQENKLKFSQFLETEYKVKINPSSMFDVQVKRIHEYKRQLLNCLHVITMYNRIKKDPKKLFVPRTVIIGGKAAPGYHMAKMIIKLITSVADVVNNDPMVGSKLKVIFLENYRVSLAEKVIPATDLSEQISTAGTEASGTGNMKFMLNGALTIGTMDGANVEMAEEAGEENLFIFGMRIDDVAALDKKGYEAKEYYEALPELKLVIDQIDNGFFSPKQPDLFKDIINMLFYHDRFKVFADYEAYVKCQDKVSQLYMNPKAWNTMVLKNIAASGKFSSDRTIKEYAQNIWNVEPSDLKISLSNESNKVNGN
Description: Glycogen Phophorylase a Activity Test
All reactions were carried out as duplicate determinations in 96-well microtiter plates (half area plates, Costar No. 3696), and the change in absorption as a consequence of the formation of the reaction product was measured at the wavelength specified below in a Multiskan Ascent Elisa Reader (Lab Systems, Finland).
In order to measure the GPa enzyme activity in the reverse direction, the conversion of glucose 1-phosphate to glycogen and inorganic phosphate was measured by the general method of Engers et al. (Engers H D, Shechosky S, Madsen N B, Can J Biochem 1970 July;48(7):746–754) with the following modifications: human glycogen phosphorylase a (for example containing 0.76 mg of protein/ml (Aventis Pharma Deutschland GmbH), dissolved in buffer solution E (25 mM β-glycerophosphate, pH 7.0, 1 mM EDTA and 1 mM dithiothreitol) was diluted to a concentration of 10 μg of protein/ml with buffer T (50 mM Hepes, pH 7.0, 100 mM KCl, 2.5 mM EDTA, 2.5 mM MgCl26H2O) and addition of 5 mg/ml of glycogen. Test substances were prepared as a 10 mM solution in DMSO and diluted to 50 μM with buffer solution T. To 10 μl of this solution were added 10 μl of 37.5 mM glucose dissolved in buffer solution T and 5 mg/ml of glycogen, and also 10 μl of a solution of human glycogen phosphorylase a (10 μg of protein/ml) and 20 μl of 2.5 mM glucose 1-phosphate. The base value of the activity of glycogen phosphorylase a in the absence of test substance was determined by adding 10 μl of buffer solution T (0.1% DMSO). The mixture was incubated at room temperature for 40 minutes and the released inorganic phosphate was determined by means of the general method of Drueckes et al. (al (Drueckes P, Schinzel R, Palm D, Anal Biochem 1995 Sep. 1;230(1):173–177) with the following modifications: 50 μl of a stop solution of 7.3 mM of ammonium molybdate, 10.9 mM of zinc acetate, 3.6% of ascorbic acid, 0.9% of SDS are added to 50 μl of the enzyme mixture. After 60 minutes of incubation at 45° C., the absorption was measured at 820 nm. To determine the background absorption, the stop solution was added immediately after the addition of the glucose 1-phosphate solution in a separate reaction. This test was carried out at a concentration of 10 μM of the test substance, in order to determine the respective inhibition of glycogen phosphorylase a by the test substance in vitro.

O=C(NC(=O)c1cc(F)c(F)cc1Cl)Nc1ccccc1-c1nnco1 [Example 8h, 1-(2-chloro-4,5-difluorobenzoyl)-3-(2-[1,3,4]oxadiazol-2-ylphenyl)urea]
% inhibition at 10 μM [1]: 100% | melting point: 199.6 °C

O=C(NC(=O)c1cc(F)c(F)cc1Cl)Nc1cc(F)ccc1N1CCC(C(=O)[O-])CC1.[Na+]
melting point: 160.9 °C

O=C(NC(=O)c1ccc(F)cc1Cl)Nc1ccc(-c2noc(=O)[nH]2)cc1Cl [Example 11f, 1-(2-chloro-4-fluorobenzoyl)-3-[2-chloro-4-(5-oxo-4,5-dihydro-[1,2,4]oxadiazol-3-yl)phenyl]urea]
% inhibition at 10 μM [1]: 98% | melting point: 243.6 °C

O=C(NC(=O)c1cc(F)c(F)cc1Cl)Nc1ccccc1-c1ccc(C(=O)O)o1 [Example 13b, 5-{2-[3-(2-chloro-4,5-difluorobenzoyl)ureido]phenyl}furan-2-carboxylic acid]
% inhibition at 10 μM [1]: 100% | melting point: 239.3 °C

COc1cc(-c2nnc(O)o2)ccc1NC(=O)NC(=O)c1ccc(F)cc1Cl [Example 8c, 1-(2-chloro-4-fluorobenzoyl)-3-[4-(5-hydroxy-[1,3,4]oxadiazol-2-yl)-2-methoxyphenyl]urea]
% inhibition at 10 μM [1]: 96%

CCN(CC)C(=O)C1CCCN(c2ccc(F)cc2NC(=O)NC(=O)c2cc(F)c(F)cc2Cl)C1 (stereo not shown) [Example 37]
% inhibition at 10 μM [1]: 3.9%

CCOC(=O)C1CCCN(c2ccc(F)cc2NC(=O)NC(=O)c2cc(F)c(F)cc2Cl)C1 (stereo not shown) [Example 35]
% inhibition at 10 μM [1]: 0.3%

Cc1nnc(-c2ccccc2NC(=O)NC(=O)c2cc(F)c(F)cc2Cl)n1-c1ccccc1C(=O)O [Example 5e, 2-(3-{2-[3-(2-chloro-4,5-difluorobenzoyl)ureido]phenyl}-5-methyl-[1,2,4]triazol-4-yl)benzoic acid]
% inhibition at 10 μM [1]: 9%

O=C(NC(=O)c1cc(F)c(F)cc1Cl)Nc1ccc(-c2nnn[nH]2)cc1OC(F)(F)F [Example 7f]
% inhibition at 10 μM [1]: 100%

NC(=O)C1CCCN(c2ccc(F)cc2NC(=O)NC(=O)c2ccc(F)cc2Cl)C1 (stereo not shown) [Example 19]
% inhibition at 10 μM [1]: 1.0%

COc1cc(-c2nnc(O)o2)ccc1NC(=O)NC(=O)c1cc(F)c(F)cc1Cl [Example 8e, 1-(2-chloro-4,5-difluorobenzoyl)-3-[4-(5-hydroxy-[1,3,4]oxadiazol-2-yl)-2-methoxyphenyl]urea]
% inhibition at 10 μM [1]: 97% | melting point: 293.1 °C

O=C(NC(=O)c1cc(F)c(F)cc1Cl)Nc1ccccc1-c1nnc(O)o1 [Example 8f, 1-(2-chloro-4,5-difluorobenzoyl)-3-[2-(5-hydroxy-[1,3,4]oxadiazol-2-yl)phenyl]urea]
% inhibition at 10 μM [1]: 99% | melting point: 222.9 °C

COC(=O)C1CCN(c2ccc(S(C)(=O)=O)cc2NC(=O)NC(=O)c2ccc(F)cc2Cl)CC1 [Example 45]
% inhibition at 10 μM [1]: 0.8%

O=C(NC(=O)c1ccc(F)cc1Cl)Nc1ccccc1-c1ccc(C(=O)O)o1 [Example 13c, 5-{2-[3-(2-chloro-4-fluorobenzoyl)ureido]phenyl}furan-2-carboxylic acid]
% inhibition at 10 μM [1]: 100% | melting point: 236.3 °C

O=C(NC(=O)c1ccc(F)cc1Cl)Nc1ccccc1-c1nnc(O)o1 [Example 8d, 1-(2-chloro-4-fluorobenzoyl)-3-[2-(5-hydroxy-[1,3,4]oxadiazol-2-yl)phenyl]urea]
% inhibition at 10 μM [1]: 100% | melting point: 229.7 °C

O=C(NC(=O)c1ccc(F)cc1Cl)Nc1cc(C(F)(F)F)ccc1N1CCC(C(=O)O)CC1 [Example 43]
% inhibition at 10 μM ([1]; 10 µM): 0.15%

O=C(NC(=O)c1cc(F)c(F)cc1Cl)Nc1ccc(-n2cncn2)cc1F [Example 1c, 1-(2-chloro-4,5-difluorobenzoyl)-3-(2-fluoro-4-[1,2,4]triazol-1-ylphenyl)urea]
% inhibition at 10 μM [1]: 94%

Cc1ccc(NC(=O)NC(=O)c2ccc(F)cc2Cl)c(N2CCCC(C(=O)O)C2)c1 (stereo not shown) [Example 25]
% inhibition at 10 μM [1]: 0.06%

Cc1ccc(NC(=O)NC(=O)c2cc(F)c(F)cc2Cl)c(N2CCCC(C(=O)O)C2)c1 (stereo not shown) [Example 26]
% inhibition at 10 μM [1]: 0.04%

NC(=O)C1CCCN(c2ccc(F)cc2NC(=O)NC(=O)c2cc(F)c(F)cc2Cl)C1 (stereo not shown) [Example 15c, 1-{2-[3-(2-chloro-4,5-difluorobenzoyl)ureido]-4-fluorophenyl}piperidine-3-carboxamide]
% inhibition at 10 μM [1]: 0.3% | melting point: 216 °C

COc1cc(-c2nnc(C)[nH]2)ccc1NC(=O)NC(=O)c1ccc(F)cc1Cl [Example 2c, 1-(2-chloro-4-fluorobenzoyl)-3-[2-methoxy-4-(5-methyl-4H-[1,2,4]triazol-3-yl)-phenyl]urea]
% inhibition at 10 μM [1]: 94%

COc1nn(-c2ccc(NC(=O)NC(=O)c3ccc(F)cc3Cl)c(OC)c2)c(=O)o1 [Example 9e, 1-(2-chloro-4-fluorobenzoyl)-3-(2-methoxy-4-(5-methoxy-2-oxo-3H-[1,3,4]-oxadiazol-3-yl)phenyl)urea]
% inhibition at 10 μM [1]: 20%

O=C(NC(=O)c1ccc(F)cc1Cl)Nc1ccccc1-c1nnco1 [Example 8g, 1-(2-chloro-4-fluorobenzoyl)-3-(2-[1,3,4]oxadiazol-2-ylphenyl)urea]
% inhibition at 10 μM [1]: 98% | melting point: 204 °C

O=C(NC(=O)c1ccc(F)cc1Cl)Nc1cc(C(F)(F)F)ccc1N1CCCC(C(=O)O)C1 (stereo not shown) [Example 24]
% inhibition at 10 μM [1]: 0.09%

Cc1nnc(-c2ccc(Cl)c(NC(=O)NC(=O)c3cc(F)c(F)cc3Cl)c2)[nH]1 [Example 6d, 1-(2-chloro-4,5-difluorobenzoyl)-3-[2-chloro-5-(5-methyl-4H-[1,2,4]triazol-3-yl)phenyl]urea]
% inhibition at 10 μM [1]: 100%

CS(=O)(=O)c1ccc(N2CCCC(C(=O)O)C2)c(NC(=O)NC(=O)c2ccc(F)cc2Cl)c1 (stereo not shown) [Example 22]
% inhibition at 10 μM [1]: 1.1%

COc1cc(-c2nnc(C)[nH]2)ccc1NC(=O)NC(=O)c1cc(F)c(F)cc1Cl [Example 3, 1-(2-chloro-4,5-difluorobenzoyl)-3-[2-methoxy-4-(5-methyl-4H-[1,2,4]triazol-3-yl)-phenyl]urea]
% inhibition at 10 μM [1]: 100%

Cc1ccc(N2CCCC(C(=O)O)C2)c(NC(=O)NC(=O)c2ccc(F)cc2Cl)c1 (stereo not shown) [Example 28]
% inhibition at 10 μM [1]: 0.04%

O=C(NC(=O)c1ccc(F)cc1Cl)Nc1ccc(-c2nnn[nH]2)cc1OC(F)(F)F [Example 7e, 1-(2-chloro-4-fluorobenzoyl)-3-[4-(1H-tetrazol-5-yl)-2-trifluoromethoxyphenyl]-urea]
% inhibition at 10 μM [1]: 100%

O=C(NC(=O)c1cc(F)c(F)cc1Cl)Nc1cc(F)ccc1N1CCC(C(=O)O)CC1 [Example 16c, 1-{2-[3-(2-chloro-4,5-difluorobenzoyl)ureido]-4-fluorophenyl}piperidine-4-carboxylic acid]
melting point: 221.7 °C

Cc1cc(=O)n(-c2ccc(NC(=O)NC(=O)c3ccc(F)cc3Cl)c(C)c2)[nH]1 [Example 12c, 1-(2-chloro-4-fluorobenzoyl)-3-[2-methyl-4-(3-methyl-5-oxo-2,5-dihydropyrazol-1-yl)phenyl]urea]
% inhibition at 10 μM [1]: 85%
